# Results as given in ChEMBL document CHEMBL1201862, “PubChem BioAssay data set” (2004).
# Active and inactive are the calls of the source.
# Target: T1, Streptokinase A (Streptococcus pyogenes serotype M1, UniProt P10520)
# T1 sequence (P10520 whole entry): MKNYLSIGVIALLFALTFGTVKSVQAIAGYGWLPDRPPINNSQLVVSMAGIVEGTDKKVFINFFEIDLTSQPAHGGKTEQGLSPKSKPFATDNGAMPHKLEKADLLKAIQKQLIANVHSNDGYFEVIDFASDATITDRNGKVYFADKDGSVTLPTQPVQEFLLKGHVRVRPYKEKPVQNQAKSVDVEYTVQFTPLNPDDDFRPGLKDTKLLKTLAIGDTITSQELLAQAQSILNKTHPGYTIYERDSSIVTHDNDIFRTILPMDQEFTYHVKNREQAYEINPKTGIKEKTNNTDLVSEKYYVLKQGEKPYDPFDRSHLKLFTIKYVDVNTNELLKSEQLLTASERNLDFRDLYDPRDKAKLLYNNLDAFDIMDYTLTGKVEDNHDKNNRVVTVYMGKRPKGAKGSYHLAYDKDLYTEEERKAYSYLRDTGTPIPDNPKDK
# Test: viability-normalized secreted streptokinase activity reduction – plasminogen activation absorbance, OD405, dose response (AID 1914);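 also: secreted streptokinase activity via plasminogen activation per viability signal from cell pellet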
# Type: functional, Streptococcus pyogenes M1 GAS
# Settings: not given
row,Compound,EC50
1,COc1ccc(-n2c(=S)[nH]c3cc(C(=O)Nc4ccc(C)c(F)c4)ccc3c2=O)c(OC)c1,> 150 µM (not active)
2,CC(Oc1cccc(Cl)c1)C(=O)Nc1ccccc1N1CCCCC1 (configuration not stated),13.5 µM (active)
3,COc1ccccc1NS(=O)(=O)c1cc(NC(=S)NCC2CCCO2)ccc1C (configuration not stated),> 150 µM (not active)
4,CCN1CCN(C(CNS(=O)(=O)c2ccc(C)cc2)c2cccnc2)CC1 (configuration not stated),> 150 µM (not active)
5,O=C(NC12CC3CC(CC(C3)C1)C2)c1ccc(-c2ccc(Br)cc2)o1,35.3 µM (active)
6,C/C(=N\NC(=O)c1ccccc1N)c1ccc(NC(=O)Cc2ccccc2)cc1,> 150 µM (not active)
7,Cc1nc(N2CCN(Cc3ccc4c(c3)OCO4)CC2)c2cc(-c3ccccc3)sc2n1,> 150 µM (not active)
8,COc1ccc(-c2cc(-c3ccc(Cl)cc3)[nH]n2)c(O)c1,> 150 µM (not active)

# System: not listed separately
# Test: Trypanosoma cruzi growth suppression in host cells – NIH3T3 host cells, beta-gal luminescence, confirmation (AID 2044);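 also: intracellular parasites grown in NIH/3T3 mouse fibroblasts as host cells; luminescent beta-galactosidase reporter signal from transgenic T. cruzi replicating inside host cells; inhibitors lower the luminescence signal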
# Type: functional, cell-based
# Settings: not given
row,Compound,EC50
1,OCCC1CN(Cc2cc3c(cc2Cl)OCO3)CCN1Cc1ccccc1 (configuration not stated),1.21 µM (active)
2,Cc1cc(C)cc(Nc2ccc([N+](=O)[O-])nc2[N+](=O)[O-])c1,1.63 µM (active)
3,COc1ccc(-c2ncc(CN3CCN(CCC(C)C)C(CCO)C3)cn2)cc1 (configuration not stated),0.933 µM (active)
4,O=C(Nc1ncc(Cc2cccc(C(F)(F)F)c2)s1)c1ccc(-c2cccc([N+](=O)[O-])c2)o1,1.73 µM (active)
5,COc1cc(C(=O)NCC(c2cccnc2)N2CCN(c3ccc(F)cc3)CC2)cc(OC)c1OC (configuration not stated),0.959 µM (active)
6,COc1ccc(C2CC(=O)c3c(C)nc(N4CCN(Cc5ccccc5)CC4)nc3C2)cc1OC (configuration not stated),1.85 µM (active)
7,Cc1cc(OCCCn2ccnc2)ccc1C(C)C,1.99 µM (active)
8,Cc1ccc2nc(-c3ccncc3)c(NC3CCCCC3)n2c1,1.86 µM (active)
9,Cc1ccccc1N=C(S)N(Cc1cccnc1)Cc1ccccc1Cl,0.8 µM (active)
10,COc1ccc(-c2ccc([C@H]3[C@@H]4C=CCC[C@@]4(C)C(=O)N3Cc3ccccc3)c(F)c2)cc1OC,2.55 µM (active)
11,Cc1ccc2nc(-c3ccncc3)c(NC3CCCC3)n2c1,2.29 µM (active)
12,CCN(CC)CCCNC(=O)c1ccc(OCC(=O)Nc2ccccc2C(F)(F)F)c(OC)c1,1.95 µM (active)
13,CCCC(CCC)C(=O)OC[N+](C)(C)CCOC(=O)C(O)(c1ccccc1)C1CCCC1 (configuration not stated),1.31 µM (active)
14,Cc1ccc(C)c(N2CCN(C(=O)CCC(=O)N3CCOc4ccc(Cl)cc43)CC2)c1,2.47 µM (active)
15,CCN(CCCC(=O)c1ccc(F)cc1)CCc1ccccc1,0.111 µM (active)

# System: Streptococcus sp. 'group A'
# Test: Streptococcus pyogenes SK(-)GAS viability under kanamycin – luminescence, BacTiterGlo, confirmation, counter-screen for streptokinase expression inhibitor project, dose response (AID 1900)
# Type: functional, organism-based
# Settings: not given
row,Compound,EC50
1,COc1ccc(Cl)cc1C(=O)NNC(=S)NC(=O)c1cc(-c2ccc(Cl)cc2)nc2ccccc12,0.202 µM (active)
2,COc1ccc(-n2c(=S)[nH]c3cc(C(=O)Nc4ccc(C)c(F)c4)ccc3c2=O)c(OC)c1,9.84 µM (active)
3,CC(Oc1cccc(Cl)c1)C(=O)Nc1ccccc1N1CCCCC1 (configuration not stated),9.74 µM (active)
4,COc1ccccc1NS(=O)(=O)c1cc(NC(S)=NCC2CCCO2)ccc1C (configuration not stated),> 150 µM (not active)
5,CCN1CCN(C(CNS(=O)(=O)c2ccc(C)cc2)c2cccnc2)CC1 (configuration not stated),> 150 µM (not active)
6,O=C(NC12CC3CC(CC(C3)C1)C2)c1ccc(-c2ccc(Br)cc2)o1,4.59 µM (active)
7,C/C(=N\NC(=O)c1ccccc1N)c1ccc(NC(=O)Cc2ccccc2)cc1,3.07 µM (active)
8,Cc1nc(N2CCN(Cc3ccc4c(c3)OCO4)CC2)c2cc(-c3ccccc3)sc2n1,19.3 µM (active)
9,COc1ccc(-c2cc(-c3ccc(Cl)cc3)[nH]n2)c(O)c1,7.27 µM (active)

# Target: T2, Heat shock factor protein 1 (Mus musculus, UniProt P38532)
# T2 sequence (P38532 whole entry): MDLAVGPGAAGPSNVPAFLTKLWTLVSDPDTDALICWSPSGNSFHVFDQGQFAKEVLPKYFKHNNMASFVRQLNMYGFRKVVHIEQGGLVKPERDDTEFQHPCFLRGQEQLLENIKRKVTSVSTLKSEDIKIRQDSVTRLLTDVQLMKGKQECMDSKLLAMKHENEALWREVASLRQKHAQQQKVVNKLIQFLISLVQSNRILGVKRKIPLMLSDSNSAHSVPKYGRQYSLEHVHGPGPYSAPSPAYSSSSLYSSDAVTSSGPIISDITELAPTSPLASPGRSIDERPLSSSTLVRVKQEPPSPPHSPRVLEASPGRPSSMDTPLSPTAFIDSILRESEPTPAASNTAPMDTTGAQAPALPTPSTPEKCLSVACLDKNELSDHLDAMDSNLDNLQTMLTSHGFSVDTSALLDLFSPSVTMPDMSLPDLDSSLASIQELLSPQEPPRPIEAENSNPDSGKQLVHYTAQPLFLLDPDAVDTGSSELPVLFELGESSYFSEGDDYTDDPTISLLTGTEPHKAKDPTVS
# Test: enhancement of HSF1-driven luciferase signal – cell-based, NIH3T3, luminescence, dose retest, confirmation (AID 435004);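 also: stress induced by proteasome inhibitor MG132 added 30 min after compound; luciferase reporter driven by HSF1 response element in NIH3T3 cells; actives raise luminescence as potentiators of the MG132 stress response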
# Type: functional
# Settings: not given
row,Compound,EC50
1,C/C(=N\Nc1nc(C)cc(-c2ccccc2)n1)c1ccc(C)o1,> 260 µM (inactive)
2,CC(C)(C)c1[nH]ncc1[N+](=O)[O-],> 260 µM (inactive)
3,COc1ccc(C2C(C(C)=O)=C(O)C(=O)N2c2ccc(C)cc2)cc1 (configuration not stated),> 260 µM (inactive)
4,Cc1ccc(C)c(S(=O)(=O)N2CCN(CC(=O)Nc3cc(C)on3)CC2)c1,> 260 µM (inactive)
5,N#CCCN1CCN(C(=S)c2ccc(-c3ccc(Cl)c(Cl)c3)o2)CC1,3.72 µM (active)
6,COc1ccccc1OCc1nnc(SCCN2CCOCC2)o1,> 260 µM (inactive)
7,CC1(C)CC(=O)C(/C=N/c2cccnc2)=C(O)C1,16.6 µM (active)
8,CCCC(=O)Nc1cc(-c2nn(C)c(=O)c3ccccc23)ccc1OC,> 260 µM (inactive)
9,CC(=O)c1ccc(N=C(S)N2C(C)CCCC2C)cc1 (configuration not stated),> 260 µM (inactive)
10,COc1cccc(-c2c(C#N)c(N)nc3c2c(C)nn3-c2ccccc2)c1O,57.9 µM (active)
11,COc1cc(C(=O)NCC2CCCO2)ccc1OCc1ccc(Cl)cc1Cl (configuration not stated),104 µM (active)
12,C=CCOc1ccc(-c2nc3c(c(=O)[nH]c(=O)n3Cc3ccccc3)n2CCCOC)cc1,> 260 µM (inactive)
13,Cc1ccccc1Oc1nc2c(C)cccn2c(=O)c1/C=C(\C#N)C(=O)Nc1c(C)n(C)n(-c2ccccc2)c1=O,12.1 µM (active)
14,Brc1c[nH]c2nc(SC/C=C/c3ccccc3)nc-2c1,1.37 µM (active)
15,Cc1ccccc1OCCCC(=O)Nc1ccccc1C(F)(F)F,> 260 µM (inactive)
16,O=C(O)CSc1nc2ccccc2nc1Cc1ccccc1F,> 260 µM (inactive)
17,CC(Oc1ccc(Cl)cc1Cl)C(=O)NCCCCc1ccccc1 (configuration not stated),> 260 µM (inactive)

# System: not listed separately
# Test: viability of uninfected HEp-2 cells – cell-based, HTS, cytotoxicity control for RSV inhibitor project, dose response (AID 2410)
# Type: functional
# Settings: human respiratory syncytial virus
row,Compound,CC50
1,Cc1sc(NC(=O)c2c(F)cccc2F)nc1-c1ccccc1,43.2 µM (active)
2,C=CCn1sc(N)c(C(=O)OCC)c1=S,24 µM (active)
3,O=C(Nc1nc2c(s1)CN(Cc1ccccc1)CC2)c1c(F)cccc1F,16.1 µM (active)
4,CCNc1nc(NC(C)C)nc(N(C#N)C(C)C(=O)N(CC)CC)n1 (configuration not stated),28.8 µM (active)
5,Nc1nc(-c2cccnc2)nc2sc3c(c12)CCCC3,> 50 µM (active)
6,COc1cc(C(=O)NCC(c2cccs2)N2CCc3ccccc32)cc(OC)c1OC (configuration not stated),18 µM (active)
7,Nc1c(Cl)cc(-c2csc(N3CCCC3c3nc4cc(Cl)c(Cl)cc4n3CCCO)n2)cc1Cl (configuration not stated),35.1 µM (active)
8,CC(=O)c1cccc(S(=O)(=O)N2CCCC(c3nc(O)c4nnn(Cc5cccc(Cl)c5)c4n3)C2)c1 (configuration not stated),> 50 µM (active)
9,Cc1cccc(C(=O)N2CCC(=O)N(C(COCc3ccc(Cl)cc3)Cc3ccccc3)CC2)c1 (configuration not stated),19.6 µM (active)
10,C=CCn1c(-c2ccc(Cl)cc2)ccc(C#N)c1=O,> 50 µM (active)
11,CCN(C(=O)c1cc2c(s1)-c1ccccc1OC2)c1cc(OC)ccc1OC,26.8 µM (active)
12,Cc1cc(-c2ccccc2)c2c(O)[nH]nc2n1,48.2 µM (active)

# System: Streptococcus
# Test: GAS UMAA2166 growth inhibition – luminescence, BacTiterGlo, counter-screen for streptokinase expression inhibitor project, dose response (AID 1915);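 also: potency for reduction of bacterial viability or growth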
# Type: functional, organism-based
# Settings: not given
row,Compound,EC50
1,COc1ccc(Cl)cc1C(=O)NNC(=S)NC(=O)c1cc(-c2ccc(Cl)cc2)nc2ccccc12,6 µM (active)
2,COc1ccc(-n2c(=S)[nH]c3cc(C(=O)Nc4ccc(C)c(F)c4)ccc3c2=O)c(OC)c1,14.8 µM (active)
3,CC(Oc1cccc(Cl)c1)C(=O)Nc1ccccc1N1CCCCC1 (configuration not stated),26.4 µM (active)
4,COc1ccccc1NS(=O)(=O)c1cc(NC(S)=NCC2CCCO2)ccc1C (configuration not stated),> 150 µM (not active)
5,CCN1CCN(C(CNS(=O)(=O)c2ccc(C)cc2)c2cccnc2)CC1 (configuration not stated),> 150 µM (not active)
6,O=C(NC12CC3CC(CC(C3)C1)C2)c1ccc(-c2ccc(Br)cc2)o1,9.47 µM (active)
7,C/C(=N\NC(=O)c1ccccc1N)c1ccc(NC(=O)Cc2ccccc2)cc1,16.3 µM (active)
8,Cc1nc(N2CCN(Cc3ccc4c(c3)OCO4)CC2)c2cc(-c3ccccc3)sc2n1,112 µM (active)
9,COc1ccc(-c2cc(-c3ccc(Cl)cc3)[nH]n2)c(O)c1,9.14 µM (active)

# Target: Cytochrome P450 2C19 (Homo sapiens, UniProt P33261)
# Sequence (P33261 whole entry): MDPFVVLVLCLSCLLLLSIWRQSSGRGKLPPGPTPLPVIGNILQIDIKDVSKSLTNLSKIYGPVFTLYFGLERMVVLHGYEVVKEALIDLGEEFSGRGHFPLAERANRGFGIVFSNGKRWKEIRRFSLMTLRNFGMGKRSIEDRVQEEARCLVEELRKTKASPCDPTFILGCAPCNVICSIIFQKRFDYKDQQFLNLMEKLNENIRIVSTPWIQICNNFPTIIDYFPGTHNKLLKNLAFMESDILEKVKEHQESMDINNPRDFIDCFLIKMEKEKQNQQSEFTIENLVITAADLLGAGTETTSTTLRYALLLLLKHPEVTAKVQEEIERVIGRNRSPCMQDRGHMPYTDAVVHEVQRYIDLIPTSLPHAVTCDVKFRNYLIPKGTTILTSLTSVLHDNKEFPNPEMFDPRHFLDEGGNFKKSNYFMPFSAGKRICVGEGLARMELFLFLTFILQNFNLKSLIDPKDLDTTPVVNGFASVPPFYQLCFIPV
# Test: Cytochrome panel assay with activity outcomes. Panel member name: p450-cyp2c19 Compounds with AC50 equal or less than 10 uM are considered active
# Type: functional
# Settings: read-out: AC50
row,Compound,AC50
1,Cc1cc(OC(=O)c2ccccc2Br)cc(=O)n1C,39.8 µM (inconclusive)
2,C#C[C@@]1(O)CC[C@@H]2[C@@H]3CCC4=CC(=O)CC[C@@H]4[C@H]3CC[C@]21CC,0.0794 µM (inconclusive)

# System: not listed separately
# Test: NIH3T3 cell viability loss – ATP luminescence, mouse fibroblasts, counter-screen, dose response (AID 2010);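 also: cells exposed to compound for about 90 hours before reading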
# Type: functional, cell-based
# Settings: not given
row,Compound,EC50
1,OCCC1CN(Cc2cc3c(cc2Cl)OCO3)CCN1Cc1ccccc1 (configuration not stated),> 60 µM (not active)
2,Cc1cc(C)cc(Nc2ccc([N+](=O)[O-])nc2[N+](=O)[O-])c1,> 60 µM (not active)
3,COc1ccc(-c2ncc(CN3CCN(CCC(C)C)C(CCO)C3)cn2)cc1 (configuration not stated),12.3 µM (active)
4,O=C(Nc1ncc(Cc2cccc(C(F)(F)F)c2)s1)c1ccc(-c2cccc([N+](=O)[O-])c2)o1,9.52 µM (active)
5,COc1cc(C(=O)NCC(c2cccnc2)N2CCN(c3ccc(F)cc3)CC2)cc(OC)c1OC (configuration not stated),> 30 µM (not active)
6,COc1ccc(C2CC(=O)c3c(C)nc(N4CCN(Cc5ccccc5)CC4)nc3C2)cc1OC (configuration not stated),> 60 µM (not active)
7,Cc1cc(OCCCn2ccnc2)ccc1C(C)C,> 60 µM (not active)
8,Cc1ccc2nc(-c3ccncc3)c(NC3CCCCC3)n2c1,> 60 µM (not active)
9,Cc1ccccc1N=C(S)N(Cc1cccnc1)Cc1ccccc1Cl,> 60 µM (not active)
10,COc1ccc(-c2ccc([C@H]3[C@@H]4C=CCC[C@@]4(C)C(=O)N3Cc3ccccc3)c(F)c2)cc1OC,37.1 µM (active)
11,Cc1ccc2nc(-c3ccncc3)c(NC3CCCC3)n2c1,> 60 µM (not active)
12,CCN(CC)CCCNC(=O)c1ccc(OCC(=O)Nc2ccccc2C(F)(F)F)c(OC)c1,> 30 µM (not active)
13,CCCC(CCC)C(=O)OC[N+](C)(C)CCOC(=O)C(O)(c1ccccc1)C1CCCC1 (configuration not stated),> 60 µM (not active)
14,Cc1ccc(C)c(N2CCN(C(=O)CCC(=O)N3CCOc4ccc(Cl)cc43)CC2)c1,> 60 µM (not active)
15,CCN(CCCC(=O)c1ccc(F)cc1)CCc1ccccc1,> 60 µM (not active)
